Experimental data published in ChEMBL document CHEMBL4002541 (Medchemcomm, 2014).
Active and inactive are the calls of the source. No cut-off for these calls is given here.

Tests used:
[1] = target: T1, Melatonin receptor type 1A (Homo sapiens, UniProt P48039); assay: Displacement of 2-[125I]Iodomelatonin from human MT1 receptor expressed in CHO cell membranes after 120 mins
[2] = target: T2, Melatonin receptor type 1B (Homo sapiens, UniProt P49286); assay: Displacement of 2-[125I]Iodomelatonin from human MT2 receptor expressed in CHO cell membranes after 120 mins
T2 sequence (P49286 whole entry): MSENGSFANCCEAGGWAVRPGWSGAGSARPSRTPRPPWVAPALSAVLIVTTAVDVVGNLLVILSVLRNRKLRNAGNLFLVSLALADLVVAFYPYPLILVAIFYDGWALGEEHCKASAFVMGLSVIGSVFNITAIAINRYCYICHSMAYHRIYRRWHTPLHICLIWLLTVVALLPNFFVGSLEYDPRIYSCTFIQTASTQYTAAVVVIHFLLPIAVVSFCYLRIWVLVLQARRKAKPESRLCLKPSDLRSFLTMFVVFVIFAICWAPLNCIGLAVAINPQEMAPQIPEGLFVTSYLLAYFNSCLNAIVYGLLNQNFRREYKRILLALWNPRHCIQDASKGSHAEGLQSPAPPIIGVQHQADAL

[3] = target: T3, 5-hydroxytryptamine receptor 2C (Homo sapiens, UniProt P28335); assay: Displacement of [3H]mesulergine from human 5HT2C (VSV) receptor expressed in CHO cell membranes after 60 mins by scintillation counting method
T3 sequence (P28335 whole entry): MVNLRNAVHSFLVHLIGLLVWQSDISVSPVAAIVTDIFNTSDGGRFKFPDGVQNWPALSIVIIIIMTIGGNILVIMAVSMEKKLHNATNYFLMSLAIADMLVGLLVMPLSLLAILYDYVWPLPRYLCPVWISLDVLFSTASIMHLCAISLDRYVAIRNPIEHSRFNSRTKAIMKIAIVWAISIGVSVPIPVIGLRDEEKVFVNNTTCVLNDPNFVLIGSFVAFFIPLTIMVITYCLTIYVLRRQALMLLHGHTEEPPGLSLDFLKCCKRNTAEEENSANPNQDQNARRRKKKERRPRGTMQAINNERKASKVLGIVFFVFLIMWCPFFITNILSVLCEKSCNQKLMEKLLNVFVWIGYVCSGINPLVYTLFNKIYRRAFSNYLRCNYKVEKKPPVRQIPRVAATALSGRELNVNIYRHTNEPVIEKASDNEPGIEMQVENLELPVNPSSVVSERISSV

[4] = target: T1, Melatonin receptor type 1A; assay: Agonist activity at human MT1 receptor expressed in CHO cells after 1 hr by [35S]GTPgammaS binding assay; type: functional, cell-based
[5] = target: T2, Melatonin receptor type 1B; assay: Agonist activity at human MT2 receptor expressed in CHO cells after 1 hr by [35S]GTPgammaS binding assay; type: functional, cell-based
[6] = tested on: Mus musculus; assay: Antidepressant activity in OF1 mouse assessed as reduction in immobility time at 64 mg/kg administered 40 mins prior to testing measured for 6 mins by tail suspension test; type: functional, organism-based
[7] = organism: Homo sapiens; assay: Selectivity ratio of Ki for human MT1 receptor to Ki for human MT2 receptor
[8] = tested on: Mus musculus; assay: Antidepressant activity in OF1 mouse assessed as reduction in immobility time at 0.1 to 10 mg/kg administered 40 mins prior to testing measured for 6 mins by tail suspension test; type: functional, organism-based
[9] = target: T1, Melatonin receptor type 1A; assay: Partial agonist activity at human MT1 receptor expressed in CHO cells after 1 hr by [35S]GTPgammaS binding assay; type: functional, cell-based
[10] = target: T4, Melatonin receptor type 1B (Homo sapiens) (UniProt P49286); assay: (§1) Partial agonist activity at human MT2 receptor expressed in CHO cells after 1 hr by [35S]GTPgammaS binding assay; type: functional, cell-based
T4 sequence (whole entry): T2 sequence (P49286 whole entry)

[11] = target: T2, Melatonin receptor type 1B; assay: as §1; type: functional, cell-based
[12] = target: T5, 5-hydroxytryptamine receptor 2C (Homo sapiens) (UniProt P28335); assay: Antagonist activity at human 5HT2C (VSV) receptor expressed in CHO cells assessed as inhibition of 5-HT-induced [3H]inositol phosphate production preincubated for 20 mins followed by 5-HT addition; type: functional, cell-based
T5 sequence (whole entry): T3 sequence (P28335 whole entry)

[13] = target: T5, 5-hydroxytryptamine receptor 2C (Homo sapiens); assay: Antagonist activity at human 5HT2C (VSV) receptor expressed in CHO cells assessed as inhibition of 5-HT-induced [3H]inositol phosphate production preincubated for 20 mins followed by 5-HT addition relative to 5-HT; type: functional, cell-based
[14] = tested on: Mus musculus; assay: Antidepressant activity in OF1 mouse assessed as reduction in immobility time at 0.1 mg/kg administered 40 mins prior to testing measured for 6 mins by tail suspension test; type: functional, organism-based
[15] = tested on: Mus musculus; assay: Antidepressant activity in OF1 mouse assessed as reduction in immobility time at 1 to 10 mg/kg administered 40 mins prior to testing measured for 6 mins by tail suspension test; type: functional, organism-based
[16] = target: T1, Melatonin receptor type 1A; assay: Binding affinity to MT1 receptor (unknown origin)
[17] = target: T2, Melatonin receptor type 1B; assay: Binding affinity to MT2 receptor (unknown origin)

T1 sequence (P48039 whole entry): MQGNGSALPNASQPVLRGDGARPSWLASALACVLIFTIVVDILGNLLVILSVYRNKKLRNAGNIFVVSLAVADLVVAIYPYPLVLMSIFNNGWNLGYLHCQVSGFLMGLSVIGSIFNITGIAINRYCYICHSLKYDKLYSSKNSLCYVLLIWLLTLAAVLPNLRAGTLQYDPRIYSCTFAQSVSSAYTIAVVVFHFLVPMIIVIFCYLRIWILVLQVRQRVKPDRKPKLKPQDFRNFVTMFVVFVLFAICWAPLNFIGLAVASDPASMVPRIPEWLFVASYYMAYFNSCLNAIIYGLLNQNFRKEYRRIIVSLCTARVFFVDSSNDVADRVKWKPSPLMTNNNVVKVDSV

Which Ki [1] does the source give for `COc1ccc2cccc(C(CO)CNC(=O)C(F)F)c2c1` (stereo not drawn) here?
The Ki was 1.91 nM.

What about the Ki [2] of the same molecule?
Its Ki is 0.347 nM.

What about the Ki [3] of the same molecule?
The Ki was 692 nM.

And the EC50 [4]?
Its EC50 is 10.2 nM.

What about the EC50 [5] of the same molecule?
Its EC50 is 0.372 nM.

With `CN(C)CCCN1c2ccccc2CCc2ccccc21` as the molecule, how does the Activity [6] read?
The Activity was “Active”.

Which Ki [1] does the source give for `COc1ccc2cccc([C@H](CO)CNC(=O)CF)c2c1` here?
Its Ki is 347 nM.

And the Ki [2]?
Its Ki is 52.5 nM.

What about the Ki [3] of the same molecule?
Its Ki is > 10000 nM.

And the Ratio Ki [7]?
The Ratio Ki was 7.

What about the EC50 [4] of the same molecule?
Its EC50 is 1050 nM.

And the EC50 [5]?
The EC50 was 25.1 nM.

What about the Activity [8] of the same molecule?
Its Activity is “inactive”.

Which results are given for `COc1ccc2cccc([C@@H](CO)CNC(=O)CF)c2c1`?
Ki [1]: 5.89 nM; Ki [2]: 0.977 nM; Ki [3]: 186 nM; EC50 [9]: 79.4 nM; Emax [9]: 62%; Emax [10]: 99%; EC50 [11]: 0.794 nM; pKb [12]: 6.3; Activity [8]: Active; Imax [13]: 97%

For `CCC(=O)NC[C@H](CO)c1cccc2ccc(OC)cc12`, which Ki [1] is on record?
Its Ki is 3.39 nM.

What about the Ki [2] of the same molecule?
Its Ki is 0.316 nM.

And the Ki [3]?
The Ki was 417 nM.

What about the EC50 [9] of the same molecule?
Its EC50 is 19.5 nM.

And the Emax [9]?
Its Emax is 59%.

What about the Emax [10] of the same molecule?
The Emax was 107%.

And the EC50 [11]?
The EC50 was 1.26 nM.

And the pKb [12]?
The pKb was 6.

And the Activity [14]?
Its Activity is “inactive”.

What about the Imax [13] of the same molecule?
Its Imax is 79%.

What about the Activity [15] of the same molecule?
The Activity was “Dose-dependent effect”.

What does the source list for `COc1cc2c([C@@H](C)CNC(C)=O)c[nH]c2cc1Cl`?
Ki [16]: 0.0794 nM; Ki [17]: 0.0398 nM

For `CCC(=O)NCC(CO)c1cccc2ccc(OC)cc12` (racemic), which Ki [1] is on record?
The Ki was 1.35 nM.

And the Ki [2]?
Its Ki is 2.95 nM.

And the Ki [3]?
The Ki was 708 nM.

And the EC50 [4]?
The EC50 was 49 nM.

What about the EC50 [5] of the same molecule?
Its EC50 is 2.75 nM.

How did the Imax [13] turn out when `COc1ccc2cccc(CCNC(C)=O)c2c1` was run?
The Imax was 98%.

With `CCC(=O)NC[C@@H](CO)c1cccc2ccc(OC)cc12` as the molecule, how does the Ki [1] read?
The Ki was 182 nM.

What about the Ki [2] of the same molecule?
The Ki was 5.5 nM.

And the Ki [3]?
The Ki was > 10000 nM.

And the Ratio Ki [7]?
The Ratio Ki was 53.

And the EC50 [4]?
Its EC50 is 389 nM.

And the EC50 [5]?
The EC50 was 7.41 nM.

And the Activity [8]?
The Activity was “inactive”.

What does the source list for `COc1ccc2cccc(C(CO)CNC(=O)CF)c2c1` (racemic)?
Ki [2]: 0.537 nM; Ki [3]: 166 nM; EC50 [4]: 25.1 nM; EC50 [5]: 0.631 nM

`COc1ccc2cccc(C(CO)CNC(C)=O)c2c1` (stereo not drawn) was tested. Which Ki [1] did it give?
Its Ki is 11 nM.

What about the Ki [2] of the same molecule?
Its Ki is 13.8 nM.

What about the Ki [3] of the same molecule?
Its Ki is 229 nM.

What about the EC50 [4] of the same molecule?
Its EC50 is 72.4 nM.

And the EC50 [5]?
The EC50 was 145 nM.
